{
  "source": "patent US6525178B2",
  "about": "“PGC-1, a novel brown fat PPARgamma coactivator” (Dana-Farber Cancer Institute, priority 1997, dated 2003)",
  "key": {"[1]": {"target": "T1, retinoid-X receptor (RXRα) (Homo sapiens, UniProt P19793)", "T1 construct": "made in house; host or cells: receptor: reticulocyte lysate in vitro translation (Promega TNT); GST-PGC-1: E. coli", "T1 sequence (P19793 1-462)": "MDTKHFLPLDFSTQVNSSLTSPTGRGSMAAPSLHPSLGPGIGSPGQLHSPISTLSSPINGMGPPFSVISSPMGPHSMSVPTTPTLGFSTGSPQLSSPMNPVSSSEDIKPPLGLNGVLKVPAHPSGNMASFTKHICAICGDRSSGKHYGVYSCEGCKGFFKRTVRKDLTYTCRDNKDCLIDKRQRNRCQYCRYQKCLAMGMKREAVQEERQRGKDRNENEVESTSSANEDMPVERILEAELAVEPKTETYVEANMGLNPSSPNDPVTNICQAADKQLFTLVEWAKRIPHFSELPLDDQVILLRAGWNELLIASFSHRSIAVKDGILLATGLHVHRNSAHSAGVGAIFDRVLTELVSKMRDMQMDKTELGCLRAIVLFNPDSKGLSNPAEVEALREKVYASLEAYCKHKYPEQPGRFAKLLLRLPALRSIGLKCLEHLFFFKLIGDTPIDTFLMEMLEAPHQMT", "experiment": "In vitro binding of GST-PGC-1 to in vitro-translated nuclear receptor", "conditions": "with or without ligand addition", "description": "The assays were carried out as follows."}, "3T3-F442A cells": {"test_system": "3T3-F442A cells", "experiment": "Southern blot analysis of mitochondrial DNA in 3T3-F442A cells expressing PGC-1", "format": "cell-based", "conditions": "cells expressing PGC-1, COX-II cDNA probe", "description": "Changes in the cellular content of mitochondrial DNA have been used as a simple biochemical assay for mitochondrial proliferation (Martin et al. (1995) Biochem. J. 308:749-752; Klingenspor et al. (1996) Biochem. J. 316:607-613). To address this possibility, Southern blot analysis of mitochondrial DNA was performed. 3T3-F442A Southern blots were carried out by isolating and processing genomic DNA as described in Maniatis et al. (1989) Molecular Cloning: A Laboratory Manual, 2nd Ed. (Cold Spring Harbor, N.Y.: Cold Spring Harbor Laboratory Press)). 3T3-F442A cells were differentiated as described above. Total cellular DNA was isolated and was digested with NCo I. Ten micrograms of DNA were electrophoresed, and the Southern blot was hybridized using COX-II cDNA as a probe for mitrochondrial DNA.\nThe same blots were also probed with cDNA for 36B4, a ribosomal protein encoded in the nucleus. The blot was then stripped and hybridized with the nuclear gene […]."}, "3T3-F442A preadipocytes": {"test_system": "3T3-F442A preadipocytes", "experiment": "Northern analysis of 3T3-F442A cells with retroviral ectopic expression of PGC-1", "format": "cell-based", "source_text": "To examine directly the ability of PGC-1 to regulate the genes of adaptive thermogenesis, retroviral vectors have been used to express this protein in white fat precursor cells, and 3T3-F442A preadipocytes were then stimulated to differentiate. Briefly, the PGC-1 viral expression vector (pBabe-PGC-1) was constructed by ligating the BamHI-Xhol fragment from pBluescript-PGC-1 plasmid into BamHI/Sall sites of pBabe-puro. Following drug selection, virally infected 3T3F442A-PGC-1 and […] cells lines were grown to confluence in DMEM with 10% BCS. Differentiation of these cells was initiated by culturing them in DMEM insulin. Cells were refed every 2 days with this medium. Specific cells were grown in DMEM with 10% CCS to confluence. […] After these treatments, total RNA was isolated and analyzed.\nTo induce UCP-1 expression, 1 μM 8-bromo-cAMP and […] 9-cis-retinoic acid were added to the medium, and total RNA was extracted from the cells 6 hr later. […] The mitochondrial respiratory enzyme cytochrome c-oxidase subunits COX II and IV are encoded in the mitochondrial and nuclear genome, respectively. Both of these mRNAs increase 2- to 3-fold in the cells ectopically expressing PGC-1. Expression of aP2, a white and brown fat cell gene not linked to thermogenesis, and 36B4, a ribosomal protein are shown as a loading control."}, "PPARγ": {"target": "T2, PPARγ (Mus musculus, UniProt P37238)", "T2 construct": "made in house; host or cells: receptor: reticulocyte lysate in vitro translation (Promega TNT); GST-PGC-1: E. coli", "T2 sequence (P37238 1-505)": "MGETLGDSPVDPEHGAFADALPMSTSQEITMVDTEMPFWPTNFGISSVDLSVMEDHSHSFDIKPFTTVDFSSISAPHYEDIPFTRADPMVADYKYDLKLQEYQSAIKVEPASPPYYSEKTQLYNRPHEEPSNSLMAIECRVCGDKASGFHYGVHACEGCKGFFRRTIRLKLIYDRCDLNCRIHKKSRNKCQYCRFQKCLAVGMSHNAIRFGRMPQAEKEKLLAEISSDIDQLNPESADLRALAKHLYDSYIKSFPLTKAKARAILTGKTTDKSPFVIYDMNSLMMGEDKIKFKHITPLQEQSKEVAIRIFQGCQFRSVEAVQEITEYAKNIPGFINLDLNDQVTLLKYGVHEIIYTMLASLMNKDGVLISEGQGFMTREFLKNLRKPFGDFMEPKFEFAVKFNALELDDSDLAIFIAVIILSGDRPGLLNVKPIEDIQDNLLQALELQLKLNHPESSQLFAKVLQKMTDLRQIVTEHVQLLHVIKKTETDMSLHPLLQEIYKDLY", "T2 sequence (O70343 36-797 partner limits assumed)": "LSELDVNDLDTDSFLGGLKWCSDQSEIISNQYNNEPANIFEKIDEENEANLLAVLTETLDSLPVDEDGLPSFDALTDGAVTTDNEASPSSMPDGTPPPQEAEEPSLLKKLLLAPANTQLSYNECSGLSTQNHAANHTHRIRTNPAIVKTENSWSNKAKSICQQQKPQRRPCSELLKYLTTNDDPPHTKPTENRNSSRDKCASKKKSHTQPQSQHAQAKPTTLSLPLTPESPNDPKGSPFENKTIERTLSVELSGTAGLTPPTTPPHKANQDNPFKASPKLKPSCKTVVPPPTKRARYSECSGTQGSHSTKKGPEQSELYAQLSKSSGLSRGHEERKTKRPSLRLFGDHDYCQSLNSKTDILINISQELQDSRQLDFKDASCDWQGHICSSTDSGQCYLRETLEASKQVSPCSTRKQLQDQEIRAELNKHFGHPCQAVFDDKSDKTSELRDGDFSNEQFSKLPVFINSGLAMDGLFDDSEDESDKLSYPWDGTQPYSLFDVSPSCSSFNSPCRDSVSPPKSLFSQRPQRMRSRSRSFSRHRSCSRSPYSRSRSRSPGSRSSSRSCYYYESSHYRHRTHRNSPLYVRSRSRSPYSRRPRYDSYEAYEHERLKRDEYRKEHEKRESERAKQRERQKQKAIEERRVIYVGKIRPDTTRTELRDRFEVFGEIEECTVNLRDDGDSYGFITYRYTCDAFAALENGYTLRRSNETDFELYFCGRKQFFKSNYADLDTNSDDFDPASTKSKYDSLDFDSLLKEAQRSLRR", "experiment": "In vitro binding of GST-PGC-1 to in vitro-translated nuclear receptor", "conditions": "GST-PGC-1 (aa 36-797) on beads", "quoted_text": "These fusion proteins were expressed, and purified from E. coli on beads containing approximately 1 μg of protein (either GST, or alone, or fused to PGC-1), 30 μl was resuspended i the binding buffer (20 mM HEPES [pH 7.7], 75 mM KCl, 0.1 mM EDTA, 2.5 mM MgCl2, 0.05% NP40,2 mM DTT, 10% glycerol).\nThe assays were carried out as follows. […] After electrophoresis, fixation, and enhancement, the radiolabeled proteins were visualized by autoradiography."}},
  "data": [
    {"substance": "PGC-1: mouse PPARγ coactivator 1 protein, SEQ ID NO:2; used as GST fusion or expressed from retroviral vector", "values": [
      {"measurement": "binding of PGC-1 to RXRα", "setting": "[1]", "result": "little or no binding"},
      {"measurement": "mitochondrial DNA content compared to control cells", "setting": "3T3-F442A cells", "result": "twice"},
      {"measurement": "mRNA for ATP synthetase", "setting": "3T3-F442A preadipocytes; cells expressing PGC-1 vs control", "result": "increased"},
      {"measurement": "mRNA for UCP-1", "setting": "3T3-F442A preadipocytes; cells expressing PGC-1 vs control 3T3-F442A cells, 8-bromo-cAMP and 9-cis-retinoic acid, 6 hr", "result": "significantly induced"},
      {"measurement": "binding of PGC-1 to PPARγ", "setting": "PPARγ", "result": "interacted with PPARγ"}
    ]}
  ]
}
